# pKi: −log10 of the molar value. Where a SMILES comes first, the peptide text is derived from it. The star is where a group is joined. CF3 = FC(F)(F)*; Moc = COC(=O)*
# How the values were obtained:
# [1] = molecular target: T1, Angiotensin-converting enzyme (Oryctolagus cuniculus, UniProt P12822); assay: Binding affinity for rabbit lung Angiotensin I converting enzyme; No inhibition at 188 uM (highest concentration tested)
# T1 sequence (P12822 whole entry): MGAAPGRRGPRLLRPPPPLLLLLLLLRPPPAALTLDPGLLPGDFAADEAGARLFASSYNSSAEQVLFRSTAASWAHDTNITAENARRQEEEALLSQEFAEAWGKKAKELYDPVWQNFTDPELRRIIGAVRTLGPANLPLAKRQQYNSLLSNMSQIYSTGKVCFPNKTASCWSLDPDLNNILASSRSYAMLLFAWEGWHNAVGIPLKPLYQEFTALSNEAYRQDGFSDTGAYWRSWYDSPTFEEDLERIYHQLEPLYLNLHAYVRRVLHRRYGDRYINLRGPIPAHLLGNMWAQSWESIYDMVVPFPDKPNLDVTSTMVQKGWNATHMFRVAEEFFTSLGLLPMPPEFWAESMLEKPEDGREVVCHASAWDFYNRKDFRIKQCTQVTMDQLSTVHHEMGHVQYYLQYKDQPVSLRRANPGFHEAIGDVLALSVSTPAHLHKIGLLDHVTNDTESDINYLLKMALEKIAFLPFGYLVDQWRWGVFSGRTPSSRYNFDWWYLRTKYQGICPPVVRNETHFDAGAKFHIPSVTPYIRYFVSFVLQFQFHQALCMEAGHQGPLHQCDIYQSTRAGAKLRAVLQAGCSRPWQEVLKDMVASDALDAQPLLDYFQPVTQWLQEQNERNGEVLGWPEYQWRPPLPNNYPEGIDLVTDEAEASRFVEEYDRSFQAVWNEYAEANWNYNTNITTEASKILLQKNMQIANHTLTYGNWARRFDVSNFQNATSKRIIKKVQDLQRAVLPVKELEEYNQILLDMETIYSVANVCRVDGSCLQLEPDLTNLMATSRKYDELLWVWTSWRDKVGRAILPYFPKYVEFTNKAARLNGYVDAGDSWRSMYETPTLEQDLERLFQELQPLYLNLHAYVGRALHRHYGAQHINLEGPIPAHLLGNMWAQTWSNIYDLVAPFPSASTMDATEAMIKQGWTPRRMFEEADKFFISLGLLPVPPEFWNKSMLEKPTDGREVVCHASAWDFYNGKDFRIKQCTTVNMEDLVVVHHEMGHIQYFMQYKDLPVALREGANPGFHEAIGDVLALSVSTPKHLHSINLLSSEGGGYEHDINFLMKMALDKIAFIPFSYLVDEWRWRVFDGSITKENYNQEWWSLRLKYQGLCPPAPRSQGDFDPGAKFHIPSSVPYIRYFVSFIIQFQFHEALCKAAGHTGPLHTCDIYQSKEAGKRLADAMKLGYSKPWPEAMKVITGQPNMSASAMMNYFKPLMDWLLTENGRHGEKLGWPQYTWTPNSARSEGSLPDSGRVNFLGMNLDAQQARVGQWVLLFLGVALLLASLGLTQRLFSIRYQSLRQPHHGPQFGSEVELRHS
# Acetylcholinesterase = Acetylcholinesterase (Homo sapiens, UniProt P22303); assay: Binding affinity for human erythrocyte Acetylcholinesterase; No inhibition at 188 uM (highest concentration tested)
# Sequence of Acetylcholinesterase (P22303 whole entry): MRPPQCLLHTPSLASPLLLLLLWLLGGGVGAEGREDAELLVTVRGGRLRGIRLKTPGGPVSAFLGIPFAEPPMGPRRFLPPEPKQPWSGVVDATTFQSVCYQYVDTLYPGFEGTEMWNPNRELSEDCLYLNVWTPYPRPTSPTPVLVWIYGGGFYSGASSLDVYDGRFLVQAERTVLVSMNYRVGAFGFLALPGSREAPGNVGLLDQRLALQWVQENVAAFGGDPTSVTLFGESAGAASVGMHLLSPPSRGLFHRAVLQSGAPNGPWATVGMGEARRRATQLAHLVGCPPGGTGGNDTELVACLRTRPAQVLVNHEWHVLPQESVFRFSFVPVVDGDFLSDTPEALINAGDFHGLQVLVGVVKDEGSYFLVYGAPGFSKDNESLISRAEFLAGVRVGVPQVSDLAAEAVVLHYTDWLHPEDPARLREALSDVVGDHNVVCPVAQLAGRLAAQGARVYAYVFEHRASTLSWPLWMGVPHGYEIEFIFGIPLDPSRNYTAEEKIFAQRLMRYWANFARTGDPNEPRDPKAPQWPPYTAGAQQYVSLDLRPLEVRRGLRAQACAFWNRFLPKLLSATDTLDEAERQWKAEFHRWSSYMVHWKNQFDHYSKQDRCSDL
# [2] = +Ratio of intravenous to oral integrated area under the concentration vs time curve, for compound in dog plasma; type: ADME, organism-based, Canis lupus familiaris
# Serine protease 1 [3] = molecular target: T2, Serine protease 1 (Homo sapiens, UniProt P07477); assay: Binding affinity for human pancreatic trypsin; […]
# T2 sequence (P07477 whole entry): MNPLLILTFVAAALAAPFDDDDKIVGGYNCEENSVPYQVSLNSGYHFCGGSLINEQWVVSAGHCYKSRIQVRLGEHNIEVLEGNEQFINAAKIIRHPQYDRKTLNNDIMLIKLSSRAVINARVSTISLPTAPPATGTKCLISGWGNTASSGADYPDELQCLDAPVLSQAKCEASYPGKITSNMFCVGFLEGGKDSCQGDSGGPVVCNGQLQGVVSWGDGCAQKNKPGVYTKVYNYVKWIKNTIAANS
# [4] = Intravenous integrated area under the concentration vs time curve, for compound in hamster plasma; type: ADME, organism-based; settings: cricetinae
# Cricetinae gen. sp. = assay: Effective dose in the Acute Hemarrhagic Assay model after i.v. administration; type: functional, Cricetulus griseus; settings: iv
# [5] = Time of maximum concentration of compound in dog plasma.; type: ADME, organism-based, Canis lupus familiaris
# Neutrophil elastase = molecular target: T3, Neutrophil elastase (Homo sapiens, UniProt P08246); assay: Binding affinity for human leukocyte elastase
# T3 sequence (P08246 whole entry): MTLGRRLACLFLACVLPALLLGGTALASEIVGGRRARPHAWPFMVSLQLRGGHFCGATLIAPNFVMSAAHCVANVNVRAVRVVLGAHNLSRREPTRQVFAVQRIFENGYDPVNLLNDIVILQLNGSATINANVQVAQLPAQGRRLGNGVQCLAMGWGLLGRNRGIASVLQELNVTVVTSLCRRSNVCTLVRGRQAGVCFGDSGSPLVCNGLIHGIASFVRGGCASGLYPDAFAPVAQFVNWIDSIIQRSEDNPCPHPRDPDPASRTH
# [6] = Ratio of intravenous to oral integrated area under the concentration vs time curve, for compound in dog plasma; type: ADME, organism-based, Canis lupus familiaris
# [7] = molecular target: T4, Mast cell carboxypeptidase A (Homo sapiens, UniProt P15088); assay: Binding affinity for carboxypeptidase A; No inhibition at 188 uM (highest concentration tested)
# T4 sequence (P15088 whole entry): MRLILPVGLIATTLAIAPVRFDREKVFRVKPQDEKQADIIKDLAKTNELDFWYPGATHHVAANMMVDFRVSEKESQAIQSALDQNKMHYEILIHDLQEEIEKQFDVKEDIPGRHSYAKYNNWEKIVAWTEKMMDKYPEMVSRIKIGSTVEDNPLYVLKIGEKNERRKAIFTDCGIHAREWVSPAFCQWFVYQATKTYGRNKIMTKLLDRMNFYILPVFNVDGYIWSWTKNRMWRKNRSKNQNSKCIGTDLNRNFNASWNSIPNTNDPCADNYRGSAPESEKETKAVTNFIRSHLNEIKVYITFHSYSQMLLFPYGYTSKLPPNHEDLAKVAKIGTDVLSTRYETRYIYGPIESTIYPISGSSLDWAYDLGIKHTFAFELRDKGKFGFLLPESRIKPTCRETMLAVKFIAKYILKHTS
# Cathepsin G = molecular target: T5, Cathepsin G (Homo sapiens, UniProt P08311); assay: Binding affinity for human leukocyte cathepsin G; No inhibition at 188 uM (highest concentration tested)
# T5 sequence (P08311 whole entry): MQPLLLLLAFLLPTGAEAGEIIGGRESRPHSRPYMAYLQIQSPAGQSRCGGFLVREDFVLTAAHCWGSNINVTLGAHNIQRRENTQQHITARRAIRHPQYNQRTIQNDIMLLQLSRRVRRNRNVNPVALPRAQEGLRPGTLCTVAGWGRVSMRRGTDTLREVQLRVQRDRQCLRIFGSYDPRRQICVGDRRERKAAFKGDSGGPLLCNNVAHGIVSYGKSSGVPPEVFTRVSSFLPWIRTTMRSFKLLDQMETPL
# Serine protease 1 [8] = molecular target: T2, Serine protease 1; assay: Binding affinity for human pancreatic trypsin
pKi (Neutrophil elastase),bioavailability [6] [%],Ki [7],Ki (Cathepsin G),pKi (Serine protease 1 [8]),SMILES,Ki [1],Ki (Acetylcholinesterase),bioavailability [2] [%],Ki (Serine protease 1 [3]),AUC [4] [ng·h/mL],ED50 (Cricetinae gen. sp.) [mg/kg],Tmax [5] [min]
,,,,,COc1ccc(C(=O)N[C@H](C(=O)N2CCC[C@H]2C(=O)N[C@H](C(=O)C(F)(F)F)C(C)C)C(C)C)cc1 (stereo in doubt; 1k),No inhibition,No inhibition,39,No inhibition,1360,0.59,30
7.89,70,No inhibition,No inhibition,4.18,COC(=O)N[C@H](C(=O)N1CCC[C@H]1C(=O)N[C@H](C(=O)C(F)(F)F)C(C)C)C(C)C (Moc-Val-Pro-Val-CF3),No inhibition,,,,2890,0.51,19.8

# Reference: ChEMBL document CHEMBL1130170, “Orally active trifluoromethyl ketone inhibitors of human leukocyte elastase” (J Med Chem, 1997)
